Measurements as given in PubChem BioAssay AID330 (DTP/NCI, 2004).
Several values for one entry are separate records, joined by “and”; a condition that tells them apart may be missing. Equal values may be shown once. Inconclusive results and toxic doses are left out. The calls were made as follows: active = survival T/C of 150% or more; inactive = T/C below 125% in these data.

Test system: P388 leukemia ip, CD2F1 mice, survival T/C
Assay: NCI In Vivo Anticancer Drug Screen. Data for tumor model P388 Leukemia (intraperitoneal) in CD2F1 (CDF1) mice
Details: endpoint: median survival time, higher = longer survival
Method in brief: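 Mice carrying the transplanted tumor received test compound or vehicle. Survival was recorded in each group, and the value is the treated-group measurement divided by that of the vehicle-treated control group.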

[1] = dose: 50.0 mg/kg/injection, schedule: Q01DX009 (ip), vehicle: Klucel (hydroxypropylcellulose) (HPC)
[2] = dose: 100.0 mg/kg/injection, schedule: Q01DX009 (ip), vehicle: Klucel (hydroxypropylcellulose) (HPC)
[3] = dose: 60.0 mg/kg/injection, schedule: Q01DX005 (ip), vehicle: Klucel (hydroxypropylcellulose) (HPC)
[4] = dose: 120.0 mg/kg/injection, schedule: Q01DX005 (ip), vehicle: Klucel (hydroxypropylcellulose) (HPC)
[5] = dose: 240.0 mg/kg/injection, schedule: Q01DX005 (ip), vehicle: Klucel (hydroxypropylcellulose) (HPC)
[6] = dose: 12.5 mg/kg/injection, schedule: Q01DX009 (ip), vehicle: Klucel (hydroxypropylcellulose) (HPC)
[7] = dose: 25.0 mg/kg/injection, schedule: Q01DX009 (ip), vehicle: Klucel (hydroxypropylcellulose) (HPC)
[8] = dose: 60.0 mg/kg/injection, schedule: Q01DX005 (ip), vehicle: saline with Tween-80
[9] = dose: 120.0 mg/kg/injection, schedule: Q01DX005 (ip), vehicle: saline with Tween-80
[10] = dose: 240.0 mg/kg/injection, schedule: Q01DX005 (ip), vehicle: saline with Tween-80
[11] = dose: 50.0 mg/kg/injection, schedule: Q01DX009 (ip), vehicle: saline
[12] = dose: 100.0 mg/kg/injection, schedule: Q01DX009 (ip), vehicle: saline
[13] = dose: 200.0 mg/kg/injection, schedule: Q01DX009 (ip), vehicle: saline
[14] = dose: 12.5 mg/kg/injection, schedule: Q01DX005 (ip), vehicle: saline with Tween-80
[15] = dose: 50.0 mg/kg/injection, schedule: Q01DX005 (ip), vehicle: saline with Tween-80

Measured: T/C

CC(=O)N1CCc2cc([N+](=O)[O-])ccc21
inactive: [1] 99 % of control | [2] 113 % of control | dose: 200.0 mg/kg/injection, schedule: Q01DX009 (ip), vehicle: Klucel (hydroxypropylcellulose) (HPC) 100 % of control | dose: 400.0 mg/kg/injection, schedule: Q01DX009 (ip), vehicle: Klucel (hydroxypropylcellulose) (HPC) 110 % of control

CCOC(=O)Nc1cc(NCC(=O)c2ccc3ccccc3c2)c([N+](=O)[O-])c(N)n1
inactive: [3] 92 % of control | [4] 91 % of control | [5] 98 % of control

COc1ccc(C[n+]2ccc3ccccc3c2)cc1
inactive: dose: 15.0 mg/kg/injection, schedule: Q01DX005 (ip), vehicle: saline 95 % of control | dose: 30.0 mg/kg/injection, schedule: Q01DX005 (ip), vehicle: saline 95 % of control | dose: 60.0 mg/kg/injection, schedule: Q01DX005 (ip), vehicle: saline 106 % of control and 111 % of control

CCN(CC)CCN(C(=O)C1c2ccccc2Oc2ccccc21)C1CCCCC1
inactive: dose: 12.5 mg/kg/injection, schedule: Q01DX005 (ip), vehicle: Klucel (hydroxypropylcellulose) (HPC) 101 % of control | dose: 25.0 mg/kg/injection, schedule: Q01DX005 (ip), vehicle: Klucel (hydroxypropylcellulose) (HPC) 100 % of control | dose: 50.0 mg/kg/injection, schedule: Q01DX005 (ip), vehicle: Klucel (hydroxypropylcellulose) (HPC) 98 % of control and 92 % of control

C1CCNCC1.O=C([CH-]C(=O)C(F)(F)F)c1ccc2c(c1)C(=O)c1ccccc1-2.O=C([CH-]C(=O)C(F)(F)F)c1ccc2c(c1)C(=O)c1ccccc1-2.O=C([CH-]C(=O)C(F)(F)F)c1ccc2c(c1)C(=O)c1ccccc1-2.O=C([CH-]C(=O)C(F)(F)F)c1ccc2c(c1)C(=O)c1ccccc1-2.[Eu+3]
inactive: [6] 112 % of control | [7] 111 % of control | [1] 110 % of control

Nc1cc(Cl)ccc1C(=O)c1ccccc1Cl
inactive: [8] 102 % of control | [9] 100 % of control | [10] 93 % of control

OC1COC2C(O)COC12 (centres undefined)
inactive: [11] 102 % of control | [12] 90 % of control

O/N=C/c1c(-c2ccccc2)nc2n1CCS2
inactive: dose: 100.0 mg/kg/injection, schedule: Q04DX002 (ip), vehicle: Klucel (hydroxypropylcellulose) (HPC) 101 % of control | dose: 200.0 mg/kg/injection, schedule: Q04DX002 (ip), vehicle: Klucel (hydroxypropylcellulose) (HPC) 99 % of control | dose: 400.0 mg/kg/injection, schedule: Q04DX002 (ip), vehicle: Klucel (hydroxypropylcellulose) (HPC) 98 % of control

COCC(=O)Oc1ccc[nH]c1=O
inactive: dose: 12.5 mg/kg/injection, schedule: Q01DX009 (ip), vehicle: saline 101 % of control and 113 % of control | dose: 25.0 mg/kg/injection, schedule: Q01DX009 (ip), vehicle: saline 103 % of control and 107 % of control | [11] 100 % of control and 106 % of control | [12] 106 % of control and 113 % of control | [13] 100 % of control and 103 % of control

CS(=O)CC(Nc1ccccc1)c1ccccc1 (centres undefined)
inactive: [3] 108 % of control | [4] 95 % of control | [5] 87 % of control

C[S+]1C2(C3CC4CC(C3)CC2C4)C12C1CC3CC(C1)CC2C3 (centres undefined)
inactive: dose: 50.0 mg/kg/injection, schedule: Q01DX005 (ip), vehicle: distilled water + alcohol 104 % of control | dose: 100.0 mg/kg/injection, schedule: Q01DX005 (ip), vehicle: distilled water + alcohol 109 % of control

COc1cccc2c1C(=N)c1c(O)c3c(c(O)c1C2=O)CC(O)(C(C)=O)CC3OC1CC(N(Cc2ccccc2)Cc2ccccc2)C(O)C(C)O1 (centres undefined)
inactive: dose: 4.69 mg/kg/injection, schedule: Q04DX003 (ip), vehicle: distilled water + Tween-80 101 % of control | dose: 9.38 mg/kg/injection, schedule: Q04DX003 (ip), vehicle: distilled water + Tween-80 102 % of control | dose: 18.75 mg/kg/injection, schedule: Q04DX003 (ip), vehicle: distilled water + Tween-80 100 % of control | dose: 37.5 mg/kg/injection, schedule: Q04DX003 (ip), vehicle: distilled water + Tween-80 96 % of control | dose: 75.0 mg/kg/injection, schedule: Q04DX003 (ip), vehicle: distilled water + Tween-80 101 % of control | dose: 150.0 mg/kg/injection, schedule: Q04DX003 (ip), vehicle: distilled water + Tween-80 108 % of control

CCCCC(CC)(CC(=N)C(C)(C)C)c1ccccc1 (centres undefined)
inactive: dose: 50.0 mg/kg/injection, schedule: Q01DX009 (ip), vehicle: saline + alcohol 111 % of control | dose: 100.0 mg/kg/injection, schedule: Q01DX009 (ip), vehicle: saline + alcohol 103 % of control | dose: 200.0 mg/kg/injection, schedule: Q01DX009 (ip), vehicle: saline + alcohol 119 % of control

COc1cc(CCN)ccc1O
inactive: [12] 104 % of control and 98 % of control | [13] 100 % of control and 102 % of control | dose: 400.0 mg/kg/injection, schedule: Q01DX009 (ip), vehicle: saline 100 % of control and 107 % of control | dose: 600.0 mg/kg/injection, schedule: Q01DX009 (ip), vehicle: saline 102 % of control and 114 % of control

O=c1cnn2c(n1)OC1C(O)C(CO)OC12 (centres undefined)
inactive: dose: 50.0 mg/kg/injection, schedule: Q01DX009 (ip), vehicle: saline with Tween-80 97 % of control | dose: 100.0 mg/kg/injection, schedule: Q01DX009 (ip), vehicle: saline with Tween-80 97 % of control | dose: 200.0 mg/kg/injection, schedule: Q01DX009 (ip), vehicle: saline with Tween-80 93 % of control

COC(=O)C1OC(SC(=N)N)C(OC(C)=O)C(OC(C)=O)C1OC(C)=O (centres undefined)
inactive: dose: 12.5 mg/kg/injection, schedule: Q01DX009 (ip), vehicle: water 101 % of control | dose: 25.0 mg/kg/injection, schedule: Q01DX009 (ip), vehicle: water 109 % of control | dose: 50.0 mg/kg/injection, schedule: Q01DX009 (ip), vehicle: water 107 % of control and 117 % of control

C/C(=N\Nc1ccccc1)C1CC2C=C(C#N)C1N(Cc1ccccc1)C2 (centres undefined)
inactive: dose: 8.75 mg/kg/injection, schedule: Q01DX005 (ip), vehicle: Klucel (hydroxypropylcellulose) (HPC) 94 % of control | dose: 17.5 mg/kg/injection, schedule: Q01DX005 (ip), vehicle: Klucel (hydroxypropylcellulose) (HPC) 96 % of control | dose: 35.0 mg/kg/injection, schedule: Q01DX005 (ip), vehicle: Klucel (hydroxypropylcellulose) (HPC) 94 % of control

NC(=O)OCCCCOC(N)=O
inactive: [1] 100 % of control | [2] 98 % of control

NC(=S)N/N=C1/C(=O)N(C2CCCCCC2)C(=O)C1C(=O)NC1CCCCCC1 (centres undefined)
inactive: [14] 105 % of control | dose: 25.0 mg/kg/injection, schedule: Q01DX005 (ip), vehicle: saline with Tween-80 99 % of control | [15] 104 % of control and 90 % of control

O=C(O)C(O)C(O)C(=O)O.[Co+3].[NH-]CC[NH-].[NH-]CC[NH-].[NH-]CC[NH-] (centres undefined)
inactive: [15] 104 % of control | dose: 100.0 mg/kg/injection, schedule: Q01DX005 (ip), vehicle: saline with Tween-80 100 % of control

O=[N+]([O-])c1ccc(/C=C(/c2ccc([N+](=O)[O-])o2)S(=O)(=O)c2ccccc2)o1
inactive: dose: 50.0 mg/kg/injection, schedule: Q01DX009 (ip), vehicle: suspension in saline 95 % of control | dose: 100.0 mg/kg/injection, schedule: Q01DX009 (ip), vehicle: suspension in saline 100 % of control

CCN1CC2(COC)CCC(OC)C34C5CC6C(OC)CC(O)(C5C6O)C(O)(C(OC)C23)C14 (centres undefined)
inactive: dose: 3.75 mg/kg/injection, schedule: Q01DX005 (ip), vehicle: saline + alcohol 96 % of control | dose: 7.5 mg/kg/injection, schedule: Q01DX005 (ip), vehicle: saline + alcohol 100 % of control | dose: 15.0 mg/kg/injection, schedule: Q01DX005 (ip), vehicle: saline + alcohol 102 % of control | dose: 30.0 mg/kg/injection, schedule: Q01DX005 (ip), vehicle: saline + alcohol 92 % of control | dose: 60.0 mg/kg/injection, schedule: Q01DX005 (ip), vehicle: saline + alcohol 99 % of control

CN(C)CCCn1c(=O)nc2n(-c3ccccc3)c3ccccc3nc-2c1=O
inactive: dose: 6.25 mg/kg/injection, schedule: Q01DX009 (ip), vehicle: Klucel (hydroxypropylcellulose) (HPC) 100 % of control and 106 % of control | [6] 105 % of control | [7] 109 % of control | [1] 122 % of control

C/C(=N\NC(=S)N1CCC(N2CCCCC2)CC1)c1ccccn1
inactive: dose: 6.25 mg/kg/injection, schedule: Q01DX005 (ip), vehicle: saline with Tween-80 112 % of control | [14] 113 % of control

O=C1NC(O)(c2ccccc2)c2cnncc21 (centres undefined)
inactive: [8] 90 % of control | [9] 93 % of control | [10] 93 % of control
